Assay results reported in patent US12077503B2, “Substituted cyclic amides and their use as herbicides” (FMC CORPORATION, priority 2015, dated 2024).

What was measured:
Format in all cases: in vivo
[1] = tested on: nutsedge, yellow (yellow nutsedge, Cyperus esculentus); assay: Test C preemergence; settings: for Plant response rating, Nutsedge, Yellow: scale 0 to 100, 0 no effect, 100 complete control
Summary of the method: (§1)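 Seeds in loam-sand soil treated preemergence, or plants in peat-based medium sprayed postemergence at 2–18 cm (1- to 4-leaf stage), with compound in a non-phytotoxic solvent mixture containing surfactant. Greenhouse-held 13–15 d, then visually rated against controls on a 0–100 scale (0 = no effect, 100 = complete control); dash = not tested.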

[2] = tested on: oilseed rape (Brassica napus); assay: Test C preemergence; settings: for Plant response rating, Oilseed Rape: scale 0 to 100, 0 no effect, 100 complete control
Summary of the method: as §1

[3] = tested on: barnyardgrass (Echinochloa crus-galli); assay: Test C preemergence; settings: for Plant response rating, Barnyardgrass: scale 0 to 100, 0 no effect, 100 complete control
Summary of the method: as §1

[4] = tested on: ryegrass, Italian (Italian ryegrass, Lolium multiflorum); assay: Test C preemergence; settings: for Plant response rating, Ryegrass, Italian: scale 0 to 100, 0 no effect, 100 complete control
Summary of the method: as §1

corn (Zea mays) [5] = assay: Test C preemergence; settings: for Plant response rating, Corn: scale 0 to 100, 0 no effect, 100 complete control
Summary of the method: as §1

[6] = tested on: pigweed (Amaranthus retroflexus); assay: Test C preemergence; settings: for Plant response rating, Pigweed: scale 0 to 100, 0 no effect, 100 complete control
Summary of the method: as §1

[7] = tested on: morningglory (Ipomoea coccinea); assay: Test C preemergence; settings: for Plant response rating, Morningglory: scale 0 to 100, 0 no effect, 100 complete control
Summary of the method: as §1

[8] = tested on: waterhemp (common waterhemp, Amaranthus rudis); assay: Test C preemergence; settings: for Plant response rating, Waterhemp: scale 0 to 100, 0 no effect, 100 complete control
Summary of the method: as §1

[9] = tested on: wheat (winter wheat, Triticum aestivum); assay: Test C preemergence; settings: for Plant response rating, Wheat: scale 0 to 100, 0 no effect, 100 complete control
Summary of the method: as §1

[10] = tested on: blackgrass (Alopecurus myosuroides); assay: Test C preemergence; settings: for Plant response rating, Blackgrass: scale 0 to 100, 0 no effect, 100 complete control
Summary of the method: as §1

[11] = tested on: crabgrass, large (large crabgrass, Digitaria sanguinalis); assay: Test C preemergence; settings: for Plant response rating, Crabgrass, Large: scale 0 to 100, 0 no effect, 100 complete control
Summary of the method: as §1

soybean (Glycine max) [12] = assay: Test C preemergence; settings: for Plant response rating, Soybean: scale 0 to 100, 0 no effect, 100 complete control
Summary of the method: as §1

[13] = tested on: foxtail, giant (giant foxtail, Setaria faberii); assay: Test C preemergence; settings: for Plant response rating, Foxtail, Giant: scale 0 to 100, 0 no effect, 100 complete control
Summary of the method: as §1

[14] = tested on: Galium (catchweed bedstraw, Galium aparine); assay: Test C preemergence; settings: for Plant response rating, Galium: scale 0 to 100, 0 no effect, 100 complete control
Summary of the method: as §1

[15] = tested on: johnsongrass (Sorghum halepense); assay: Test C preemergence; settings: for Plant response rating, Johnsongrass: scale 0 to 100, 0 no effect, 100 complete control
Summary of the method: as §1

[16] = tested on: lambsquarters (Chenopodium album); assay: Test C preemergence; settings: for Plant response rating, Lambsquarters: scale 0 to 100, 0 no effect, 100 complete control
Summary of the method: as §1

[17] = tested on: velvetleaf (Abutilon theophrasti); assay: Test C preemergence; settings: for Plant response rating, Velvetleaf: scale 0 to 100, 0 no effect, 100 complete control
Summary of the method: as §1

[18] = tested on: ryegrass, Italian (Italian ryegrass, Lolium multiflorum); assay: Test C postemergence; settings: scale 0 to 100, 0 no effect, 100 complete control
Source text: (§2) Seeds of plant species selected from blackgrass (Alopecurus myosuroides), ryegrass, Italian (Italian ryegrass, Lolium multiflorum), wheat (winter wheat, Triticum aestivum), Galium (catchweed bedstraw, Galium aparine), corn (Zea mays), crabgrass, large (large crabgrass, Digitaria sanguinalis), foxtail, giant (giant foxtail, Setaria faberii), johnsongrass (Sorghum halepense), lambsquarters (Chenopodium album), morningglory (Ipomoea coccinea), nutsedge, yellow (yellow nutsedge, Cyperus esculentus), pigweed (Amaranthus retroflexus), ragweed (common ragweed, Ambrosia elatior), soybean (Glycine max), barnyardgrass (Echinochloa crus-galli), oilseed rape (Brassica napus), waterhemp (common waterhemp, Amaranthus rudis) and velvetleaf (Abutilon theophrasti) were planted into a blend of loam soil and sand and treated preemergence with test chemicals formulated in a non-phytotoxic solvent mixture which included a surfactant.
(§3) At the same time, plants selected from these crop and weed species and also Kochia (Kochia scoparia), oat, wild (wild oat, Avena fatua), and chickweed (common chickweed, Stellaria media) were planted in pots containing Sunshine Redi-Earth® planting medium comprising spaghnum peat moss, vermiculite, starter nutrients and dolomitic limestone and treated with postemergence applications of test chemicals formulated in the same manner. Plants ranged in height from 2 to 18 cm (1- to 4-leaf stage) for postemergence treatments. Treated plants and controls were maintained in a greenhouse for 13 to 15 d, after which time all species were compared to controls and visually evaluated. Plant response ratings, summarized in Table C, are based on a scale of 0 to 100 where 0 is no effect and 100 is complete control. A dash (-) response means no test result.

corn (Zea mays) [19] = assay: Test C postemergence; settings: scale 0 to 100, 0 no effect, 100 complete control
Source text: as §2, §3

soybean (Glycine max) [20] = assay: Test C postemergence; settings: scale 0 to 100, 0 no effect, 100 complete control
Source text: as §2, §3

[21] = tested on: foxtail, giant (giant foxtail, Setaria faberii); assay: Test C postemergence; settings: scale 0 to 100, 0 no effect, 100 complete control
Source text: as §2, §3

[22] = tested on: johnsongrass (Sorghum halepense); assay: Test C postemergence; settings: scale 0 to 100, 0 no effect, 100 complete control
Source text: as §2, §3

[23] = 31 g ai/ha, 0 is no effect, 100 is complete control

O=C1NCC(c2ccc3c(c2)OC(F)(F)O3)C1C(=O)Nc1cccc(F)c1F (stereo not shown) [Compound 635]
Plant response rating (scale of 0 to 100), Nutsedge, Yellow [1, 23]: 0
Plant response rating, Nutsedge, Yellow ([1]; 62 g ai/ha): 0
Plant response rating, Nutsedge, Yellow ([1]; 125 g ai/ha): 0
Plant response rating, Nutsedge, Yellow ([1]; 250 g ai/ha): 25
Plant response rating (scale of 0 to 100), Oilseed Rape [2, 23]: 25
Plant response rating, Oilseed Rape ([2]; 62 g ai/ha): 50
Plant response rating, Oilseed Rape ([2]; 125 g ai/ha): 90
Plant response rating, Oilseed Rape ([2]; 250 g ai/ha): 90
Plant response rating (scale of 0 to 100), Barnyardgrass [3, 23]: 85
Plant response rating, Barnyardgrass ([3]; 62 g ai/ha): 90
Plant response rating, Barnyardgrass ([3]; 125 g ai/ha): 95
Plant response rating, Barnyardgrass ([3]; 250 g ai/ha): 95
Plant response rating (scale of 0 to 100), Ryegrass, Italian [4, 23]: 0
Plant response rating, Ryegrass, Italian ([4]; 62 g ai/ha): 5
Plant response rating, Ryegrass, Italian ([4]; 125 g ai/ha): 20
Plant response rating, Ryegrass, Italian ([4]; 250 g ai/ha): 40
Plant response rating (scale of 0 to 100), Corn (corn (Zea mays) [5]; [23]): 0
Plant response rating, Corn (corn (Zea mays) [5]; 62 g ai/ha): 70
Plant response rating, Corn (corn (Zea mays) [5]; 125 g ai/ha): 75
Plant response rating, Corn (corn (Zea mays) [5]; 250 g ai/ha): 85
Plant response rating (scale of 0 to 100), Pigweed [6, 23]: 70
Plant response rating, Pigweed ([6]; 62 g ai/ha): 70
Plant response rating, Pigweed ([6]; 125 g ai/ha): 85
Plant response rating, Pigweed ([6]; 250 g ai/ha): 85
Plant response rating (scale of 0 to 100), Morningglory [7, 23]: 0
Plant response rating, Morningglory ([7]; 62 g ai/ha): 25
Plant response rating, Morningglory ([7]; 125 g ai/ha): 30
Plant response rating, Morningglory ([7]; 250 g ai/ha): 50
Plant response rating (scale of 0 to 100), Waterhemp [8, 23]: 75
Plant response rating, Waterhemp ([8]; 62 g ai/ha): 80
Plant response rating, Waterhemp ([8]; 125 g ai/ha): 85
Plant response rating, Waterhemp ([8]; 250 g ai/ha): 85
Plant response rating (scale of 0 to 100), Wheat [9, 23]: 0
Plant response rating, Wheat ([9]; 62 g ai/ha): 0
Plant response rating, Wheat ([9]; 125 g ai/ha): 10
Plant response rating, Wheat ([9]; 250 g ai/ha): 65
Plant response rating (scale of 0 to 100), Blackgrass [10, 23]: 30
Plant response rating, Blackgrass ([10]; 62 g ai/ha): 60
Plant response rating, Blackgrass ([10]; 125 g ai/ha): 70
Plant response rating, Blackgrass ([10]; 250 g ai/ha): 90
Plant response rating (scale of 0 to 100), Crabgrass, Large [11, 23]: 90
Plant response rating, Crabgrass, Large ([11]; 62 g ai/ha): 95
Plant response rating, Crabgrass, Large ([11]; 125 g ai/ha): 95
Plant response rating, Crabgrass, Large ([11]; 250 g ai/ha): 98
Plant response rating (scale of 0 to 100), Soybean (soybean (Glycine max) [12]; [23]): 20
Plant response rating, Soybean (soybean (Glycine max) [12]; 62 g ai/ha): 85
Plant response rating, Soybean (soybean (Glycine max) [12]; 125 g ai/ha): 5
Plant response rating, Soybean (soybean (Glycine max) [12]; 250 g ai/ha): 60
Plant response rating (scale of 0 to 100), Foxtail, Giant [13, 23]: 85
Plant response rating, Foxtail, Giant ([13]; 62 g ai/ha): 90
Plant response rating, Foxtail, Giant ([13]; 125 g ai/ha): 95
Plant response rating, Foxtail, Giant ([13]; 250 g ai/ha): 95
Plant response rating (scale of 0 to 100), Galium [14, 23]: 5
Plant response rating, Galium ([14]; 62 g ai/ha): 5
Plant response rating, Galium ([14]; 125 g ai/ha): 80
Plant response rating, Galium ([14]; 250 g ai/ha): 80
Plant response rating (scale of 0 to 100), Johnsongrass [15, 23]: 25
Plant response rating, Johnsongrass ([15]; 62 g ai/ha): 75
Plant response rating, Johnsongrass ([15]; 125 g ai/ha): 65
Plant response rating, Johnsongrass ([15]; 250 g ai/ha): 85
Plant response rating (scale of 0 to 100), Lambsquarters [16, 23]: 40
Plant response rating, Lambsquarters ([16]; 62 g ai/ha): 40
Plant response rating, Lambsquarters ([16]; 125 g ai/ha): 80
Plant response rating, Lambsquarters ([16]; 250 g ai/ha): 85
Plant response rating (scale of 0 to 100), Velvetleaf [17, 23]: 0
Plant response rating, Velvetleaf ([17]; 62 g ai/ha): 10
Plant response rating, Velvetleaf ([17]; 125 g ai/ha): 15
Plant response rating, Velvetleaf ([17]; 250 g ai/ha): 40
Plant response rating, Ryegrass, Italian ([18]; 31 g ai/ha): 0
Plant response rating, Ryegrass, Italian ([18]; 62 g ai/ha): 0
Plant response rating, Ryegrass, Italian ([18]; 125 g ai/ha): 15
Plant response rating, Ryegrass, Italian ([18]; 250 g ai/ha): 20
Plant response rating, Corn (corn (Zea mays) [19]; 31 g ai/ha): 0
Plant response rating, Corn (corn (Zea mays) [19]; 62 g ai/ha): 0
Plant response rating, Corn (corn (Zea mays) [19]; 125 g ai/ha): 5
Plant response rating, Corn (corn (Zea mays) [19]; 250 g ai/ha): 40
Plant response rating, Soybean (soybean (Glycine max) [20]; 31 g ai/ha): 0
Plant response rating, Soybean (soybean (Glycine max) [20]; 62 g ai/ha): 0
Plant response rating, Soybean (soybean (Glycine max) [20]; 125 g ai/ha): 5
Plant response rating, Soybean (soybean (Glycine max) [20]; 250 g ai/ha): 10
Plant response rating, Foxtail, Giant ([21]; 31 g ai/ha): 15
Plant response rating, Foxtail, Giant ([21]; 62 g ai/ha): 30
Plant response rating, Foxtail, Giant ([21]; 125 g ai/ha): 50
Plant response rating, Foxtail, Giant ([21]; 250 g ai/ha): 60
Plant response rating, Johnsongrass ([22]; 31 g ai/ha): 0
Plant response rating, Johnsongrass ([22]; 62 g ai/ha): 0
Plant response rating, Johnsongrass ([22]; 125 g ai/ha): 5
Plant response rating, Johnsongrass ([22]; 250 g ai/ha): 5
